Measurements: patent US11291674B2 (CALITHERA BIOSCIENCES, INC., priority 2016, dated 2022)

Assays:
B16 tumors [1] = experiment: Adoptive T cell transfer study, B16 model; type: in vivo, mouse; settings: compared to either single agent; all groups cyclophosphamide plus fludarabine
Method: Adoptive T cell transfer studies. Activated gp100-specific CD8^+ (Pmel-1) T cells were generated as described in Ya et al. Briefly, splenocytes from Pmel-1 TCR transgenic mice were isolated, pulsed with 1 μM of murine gp10025-33 (Anaspec, Fremont, Calif.) and expanded for 1 week in the presence of 60 IU/mL recombinant human IL-2 (Peprotech, Rocky Hill, N.J.). Cells were >90% CD8^+Vβ13^+ T cells as determined by flow cytometry. C57BL/6 mice were inoculated s.c. with B16 tumor cells. […] On day 7, lymphopenia was induced by a non-myeloablative chemotherapy regimen of 250 mg/kg cyclophosphamide and 50 mg/kg fludarabine administered i.p. The chemotherapy regimen was administered to all groups. On day 9, mice were administered 1×10^6 Pmel-1 T cells intravenously (i.v.). Mice receiving Pmel-1 T cells also received recombinant human IL-2 (200,000 IU/dose) administered i.p. twice daily for 3 days starting the day of T cell transfer.

[2] = test system: G-MDSC-mediated suppression of T cell proliferation; experiment: T cell proliferation in media conditioned by G-MDSC of a lung cancer patient; type: cell-based, human
Method: T cell/myeloid cell co-culture assays. […] Granulocytes were incubated for 48 h at 37° C., during which time they spontaneously activate as determined by surface expression of CD66b and scatter properties. T cells isolated from the same donor using a pan-T cell isolation kit (Stemcell Technologies) were loaded with CFSE and plated with immobilized anti-CD3 and soluble anti-CD28 in the presence of the aged granulocytes. The cells were co-cultured at several ratios of granulocytes to T cells as indicated or at a fixed ratio of 4 T cells to 1 granulocyte. Co-cultures were incubated for 3-4 days, at which time media were analyzed for L-arginine and L-ornithine by mass spectrometry and T cell proliferation was determined by flow cytometry. Granulocytic MDSC (G-MDSC) or granulocytes from cancer patients were isolated from whole blood purchased from Conversant Biologics. G-MDSCs were purified from the PBMC layer of a Ficoll gradient by positive selection for CD66b^+ cells. Granulocytes were purified from the RBC layer of a Ficoll gradient using Hetasep (Stemcell Technologies). […] Cytokines were quantified in the media from T cell co-culture assays using the Cytometric Bead Array kit according to the manufacturer's instructions (BD Biosciences).

[3] = test system: granulocyte-mediated suppression of T cell proliferation; experiment: T cell/granulocyte co-culture assay, healthy donor; type: cell-based, human
Method: T cell and NK cell proliferation assays. T cells or NK cells were purified from healthy donor human blood or from murine splenocytes using a negative selection kit for the appropriate cell type and species from Stemcell Technologies. Isolated T cells or NK cells were loaded with carboxyfluorescein succinimidyl ester (CFSE, Thermo Fisher) and stimulated for 72-96 h in complete growth media containing a minimum of either 50 µM L-arginine (NK cells) or 100 μM L-arginine (T cells). […] Proliferation was quantified by analyzing CFSE dilution by flow cytometry (Guava flow cytometer, Millipore, Billerica, Mass. or Attune N×T flow cytometer, ThermoFisher).
T cell/myeloid cell co-culture assays. […] Granulocytes were incubated for 48 h at 37° C., during which time they spontaneously activate as determined by surface expression of CD66b and scatter properties. […] Co-cultures were incubated for 3-4 days, at which time media were analyzed for L-arginine and L-ornithine by mass spectrometry and T cell proliferation was determined by flow cytometry. […] Cytokines were quantified in the media from T cell co-culture assays using the Cytometric Bead Array kit according to the manufacturer's instructions (BD Biosciences).

B16 tumors [4] = experiment: B16 syngeneic tumor model; type: in vivo
Source text: Murine tumor studies. Female wild-type C57BL/6 and Balb/c mice (5-6 weeks old) were purchased from Charles River Laboratories (Hollister, Calif.). Severe combined immune deficient (SCID, B6.CB17-PrkdcSCID/SzJ) and Pmel-1 TCR transgenic (B6.Cg-Thyla/Cy Tg(TcraTcrb)8Rest/J) mice (5-6 weeks old) were purchased from The Jackson Laboratory (Bar Harbor, Me.). All mice were housed and treated in accordance with Institutional Animal Care and Use Committee guidelines. For the 4T1 tumor model, 1×10^5 cells were injected orthotopically into the mammary fat pad; for all other tumor models, 1×10^6 cells were injected subcutaneously (s.c.) in the right flank. […] Control groups received vehicle (water) twice daily by gavage. Tumor volume measured by digital caliper (length×width×width/2) and body weight were recorded three times weekly. Animals were euthanized when tumors necrotized or volumes reached 2000 mm^3. Anti-PD-L1 antibody (5 mg/kg, clone 10F.9G2, BioXCell, West Lebanon, N.H.) was injected intraperitoneally (i.p.) on days 5, 7, 9, 11, 13, and 15 for the CT26 model. Gemcitabine (Selleckchem, Houston, Tex.) was dosed 50 mg/kg i.p. on days 10 and 16 for the CT26 model or 60 mg/kg i.p. on days 6 and 10 for the LLC model. For CD8^+ cell depletion, mice were injected i.p. with anti-CD8 antibody (25 mg/kg, clone 2.43, BioXCell) on days −1, 0, +5, and +10. For NK cell depletion, mice were injected i.p. with anti-NK1.1 antibody (25 mg/kg, clone PK136, BioXCell) in the LLC and B16 models or with anti-Asialo GM1 sera (20 μL, Wako Chemicals, Richmond, Va.) in the CT26 model, per the same schedule as anti-CD8.
Tumor dissociation and flow cytometry. […] All tumor flow experiments were acquired on an Attune N×T flow cytometer and analyzed with FlowJo software version 10 (Ashland, Oreg.), using fluorescence-minus-one controls for gating and single-stained OneComp eBeads (eBioscience) to set compensation matrices.

CT26 cell line = experiment: Cytotoxicity assay (CellTiterGlo), CT26; type: cell-based, murine; settings: 1 mM arginase inhibitor, 72 h
Method: Cytotoxicity assays. […] Cytotoxicity was assayed by the addition of CellTiterGlo reagent according to the manufacturer's instructions (Promega, Madison, Wis.) followed by […] quantification on a Molecular Devices plate reader (Sunnyvale, Calif.).

C[C@H](N)C(=O)N1C[C@H](CCCB(O)O)[C@](N)(C(=O)O)C1 [arginase inhibitor]
Tumor growth, combination with T cells specific for the PMEL tumor antigen (B16 tumors [1]): significantly reduced tumor growth
Arginine depletion of the media ([2]; G-MDSC of a lung cancer patient): arginine depletion was blocked
T cell proliferation restored, of control levels ([2]; media conditioned by G-MDSC of a lung cancer patient): 99%
T cell proliferation restored, of the proliferation observed for T cells without granulocytes ([3]; co-culture with healthy donor granulocytes): 90%
Depletion of L-arginine from the media by granulocytes ([3]; healthy donor granulocytes): blocked depletion of L-arginine
Tumor growth, single agent (B16 tumors [4]; 100 mg/kg BID PO): significantly inhibited the growth
Tumor-infiltrating activated CD25+ CD8+ cytotoxic T cells vs vehicle (B16 tumors [4]; 100 mg/kg BID, study day 9, flow cytometry): increase
Efficacy after depletion of either CD8+ cells or NK cells (B16 tumors [4]; 100 mg/kg twice daily, depleting antibodies): blocked the efficacy
Growth inhibition of CT26 cell line (CT26 cell line): No growth inhibition
